Measurements taken from PMC10448909 (Cancer Research Communications, 2023).
Read-outs that look alike come from different tables or passages of the source.

Tests used:
advanced solid tumors [1] = conditions: patients with advanced solid tumors; cited from earlier work
MetAP2 [2] = assay: Met-EF1α pharmacodynamic biomarker in tumor biopsies; type: in vivo, human; conditions: cycle 2, day 1
From the text: (§1) Tumor biopsies were collected during the screening period and on cycle 2, day 1. White blood cell (WBC) samples were collected during the screening period, predose on days 1, 2, 8, and 15 of cycle 1 and postdose on days 1 and 15 of cycle 1. In addition, WBC samples were collected predose on days 1 and 15 of cycle 2.
(§2) No formal significance level was defined for this study and all analyses were considered descriptive.

MetAP2 [3] = assay: Met-EF1α pharmacodynamic biomarker in white blood cells; type: in vivo, human; conditions: 12 mg once daily and higher, from cycle 1, day 15 onward; no obvious dose correlation
From the text: as §1, §2

advanced solid tumors [4] = assay: Antitumor activity by RECIST v1.1; type: in vivo, human
Method: Efficacy endpoints included best overall response [BOR: complete response (CR), partial response (PR), stable disease (SD), or progressive disease] according to the RECIST v1.1. criteria ([20]), clinical benefit (defined as CR, PR, or SD for ≥12 weeks) and progression-free survival (PFS). PFS was defined as time from first dose to objective disease progression or death, whichever occurred first. CT scans or MRI were performed predose to document the baseline tumor status using the most appropriate criteria for the malignancy type. Target and non-target lesions were selected on the basis of the initial scan. Clinical efficacy was assessed by the investigators according to RECIST v1.1 every two cycles (starting on day 1 of cycle 3).
For the efficacy analysis, objective response and clinical benefit were summarized and 95% exact Clopper–Pearson confidence intervals (CI) were estimated ([21]). Kaplan–Meier estimates were calculated for PFS and the CI for the median PFS was calculated according to Brookmeyer and Crowley ([22]).

[5] = test system: human tumor cell xenografts in mice; set-up: method as in El Bawab S, personal communication; conditions: defined by preclinical modeling; ref El Bawab S, personal communication; cited from earlier work
[6] = test system: patient-derived renal cell carcinoma xenografts; set-up: method as in earlier work; conditions: with sunitinib, cabozantinib, axitinib; Friese-Hamim M, personal communication; cited from earlier work
[7] = test system: metastatic renal carcinoma; set-up: method as in PMID 10561320; conditions: phase II, patients with metastatic renal carcinoma; cited from earlier work
[8] = cited from earlier work
[9] = cited from earlier work; remark: listed apart in the source

CO[C@@H](C(=O)N[C@H]1CC[C@@H](OC(=O)C2CCCCC2)CNC1=O)[C@H](O)[C@@H](O)[C@H](O)/C=C/C(C)(C)C [LAF389]
Objective responses (advanced solid tumors [1]): failed to show any objective responses

O=C(NCc1cc(F)cc(F)c1)[C@@]1(O)CCN(c2ccc3[nH]ccc3c2)C1=O [M8891]
Met-EF1α accumulation in tumors (MetAP2 [2]; 7 to 35 mg once daily): tended to increase up to 35 mg once daily in a dose-dependent manner | Met-EF1α levels in tumor (MetAP2 [2]; ≥35 mg once daily): ≥ 125 μg/mg protein | Pharmacodynamic response in WBCs (MetAP2 [3]): low and variable pharmacodynamic response | Duration of stable disease (advanced solid tumors [4]; 7 patients with BOR of SD): 42 to 123 days | Objective responses (advanced solid tumors [4]; all doses, n = 27): no objective responses | Target Met-EF1α level expected to be correlated with efficacy [5]: 125 μg/mg protein | Antitumor activity in combination with VEGFR-targeted TKIs [6]: strong and durable antitumor activity

CO[C@@H]1[C@H](OC(=O)NC(=O)CCl)CC[C@]2(CO2)[C@H]1[C@@]1(C)O[C@@H]1CC=C(C)C [TNP-470]
Objective responses [7]: failed to show any significant objective responses | Neurotoxicity in phase I studies [8]: considerable neurotoxicity | Pharmacokinetic variability in phase I studies [9]: high pharmacokinetic variability
